{"source": "patent US11993513B2", "about": "“Process for manufacturing an aqueous hydrogen peroxide solution” (SOLVAY SA, priority 2018, dated 2024)", "assay_type_in_all_cases": "physicochemical", "key": {"[1]": {"assay": "Density of polar solvents", "conditions": "ambient temperature"}, "[2]": {"assay": "Solubility tests of hydrogenated quinones (QH) in solvent mixtures, synthetic EQ/ETQ working solutions", "conditions": "comparison in words", "experimental": "The determination of the QH solubility was performed on synthetic EQ/ETQ working solutions. These quinones mixed in the tested solvents have been hydrogenated to a fixed level and cooled down successively to 3 different temperatures before the measurement (min. 3 hours to stabilize the system between each measurement). The conditions applied for these tests were:\nIn this figure, Kb stands for the weight partition coefficient of hydrogen peroxide between the water and the working solution (mixture of quinones and organic solvents). It is calculated using the following formula: Kb=(g H2O2/kg aqueous phase)/(g H2O2/kg organic phase)\nThe maximum solubility of a hydrogenated quinone (QH) in a solvent mixture is directly correlated with the productivity of the working solution. The higher is the QH solubility, the higher will be the theoretical quantity of hydrogen peroxide achievable per kg of WS (Productivity). These theoretical values, designated by the terms “Productivity (gH2O2/kg of WS) measured” in Table 1, were calculated as follows: […]\n1 mole (240 g) ETQH (which actually is the QH in our Examples) per kg of WS will produce 1 mole (34 g) of H2O2 per kg of WS."}, "[3]": {"assay": "Stability of the nitrile solvent during the AO process", "conditions": "nitrile function not protected", "from_the_text": "As explained above, the main feature of the invention is the recourse to a mixture of a polar organic solvent and a non-polar organic solvent wherein the polar organic solvent is a substituted cyclohexane carbonitrile. […] The substituent(s) are preferably alkyl groups, preferably methyl and/or ethyl group(s). […] Another alternative would be to use at least one propyl, diethyl, methyl isopropyl, butyl, t-butyle . . . the latter being preferred."}}, "data": [{"molecule": "CCCCCCCCCC#N", "note": "[Decanenitrile]", "values": [{"measurement": "Density of polar solvents at amb T°", "setting": "[1]", "result": 0.83, "unit": "kg/L"}]}, {"molecule": "CC1CCCC(C)(C)C1C#N", "note": "(centres unmarked) [TMCH-CN, 2,2,6-trimethyl-cyclohexane-carbonitrile]", "values": [{"measurement": "Productivity values compared with sextate or a linear nitrile like decanenitrile", "setting": "[2]", "result": "much higher (almost the double in fact)"}, {"measurement": "Density of polar solvents at amb T°", "setting": "[1]", "result": 0.89, "unit": "kg/L"}]}, {"molecule": "N#CC1CCCCC1", "note": "[Unsubstituted cyclohexane carbonitrile, cyclohexane carbonitrile]", "values": [{"measurement": "Stability of the molecule during the AO process", "setting": "[3]", "result": "undergoes degradation"}]}, {"molecule": "methyl cyclohexyl acetate [Sextate]", "values": [{"measurement": "Density of polar solvents at amb T°", "setting": "[1]", "result": 0.94, "unit": "kg/L"}]}]}
